For assay [1], the target named is T1, Tyrosine-protein phosphatase YopH (Yersinia enterocolitica, UniProt P15273). Nature of the assay: Inhibition of Yersinia enterocolitica recombinant YopH using pNPP as substrate after 10 mins by spectrophotometry.
For assay [2], the target named is T1, Tyrosine-protein phosphatase YopH. The assay can be described thus: Competitive inhibition of Yersinia enterocolitica recombinant YopH using pNPP as substrate after 10 mins by Line-weaver Burk plot analysis.
Assay [3] addresses Tyrosine-protein phosphatase YopH (Yersinia enterocolitica) (UniProt P15273). The assay can be described thus: Inhibition of Yersinia enterocolitica recombinant YopH using pNPP as substrate at 25 uM after 10 mins by spectrophotometry.
The target in assay [4] is T1, Tyrosine-protein phosphatase YopH. Nature of the assay: Noncompetitive inhibition of Yersinia enterocolitica recombinant YopH using pNPP as substrate after 10 mins by Line-weaver Burk plot analysis.

Chain of Tyrosine-protein phosphatase YopH (Yersinia enterocolitica) (P15273 whole entry): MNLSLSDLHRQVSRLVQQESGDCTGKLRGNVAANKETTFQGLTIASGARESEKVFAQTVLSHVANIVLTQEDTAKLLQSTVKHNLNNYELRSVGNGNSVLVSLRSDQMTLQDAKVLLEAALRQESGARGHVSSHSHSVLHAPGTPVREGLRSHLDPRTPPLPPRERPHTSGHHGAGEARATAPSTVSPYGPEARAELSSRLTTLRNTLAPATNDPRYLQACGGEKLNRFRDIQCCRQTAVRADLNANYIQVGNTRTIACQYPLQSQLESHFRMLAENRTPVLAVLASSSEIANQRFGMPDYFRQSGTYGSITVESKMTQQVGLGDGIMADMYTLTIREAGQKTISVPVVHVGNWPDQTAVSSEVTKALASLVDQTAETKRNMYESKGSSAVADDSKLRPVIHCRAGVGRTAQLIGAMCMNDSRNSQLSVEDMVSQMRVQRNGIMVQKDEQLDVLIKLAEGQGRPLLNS
T1 sequence (P15273 whole entry): as above

In the case of `O=C(/C=C/c1ccc2c(c1)OCO2)c1cccc([N+](=O)[O-])c1`, the IC50 (as a rule, the concentration that gives 50% inhibition) in assay [1] was determined as 9.9 µM. Further, the inhibition constant (Ki) (as a rule, the dissociation constant of the complex between target and ligand, obtained from inhibition or displacement) in assay [2] was 4.5 µM. Further, the inhibition (in general, the share of the control response that was lost under treatment) in assay [3] is 31.3%.

For the compound `CC12C=CC(O1)[C@H]1C(=O)N(c3ccc(S(=O)(=O)N/N=C/c4ccc(Cl)c(Cl)c4)cc3)C(=O)[C@H]12` (stereo not given in full), in assay [1], the IC50 was determined as 62.2 µM. Besides, in assay [3], the inhibition is 45.6%.

On to `O=C(/C=C/c1cccc2ccccc12)c1ccc2ccccc2c1`, for which, in assay [1], the IC50 is 193 µM. For the same compound, the inhibition in assay [3] was determined as 26.5%.

`O=C(/C=C/c1ccc2ccccc2c1)c1ccc2ccccc2c1`: the half-inhibitory concentration (IC50) in assay [1] worked out at 20.3 µM. Besides, the Ki in assay [2] turned out to be 14.1 µM. For the same compound, the inhibition in assay [3] came out at 66.9%.

For the compound `O=C(/C=C/c1cc2ccccc2nc1Cl)c1ccc2c(c1)OCO2`, the IC50 in assay [1] came out at 117 µM. Further, the inhibition in assay [3] was determined as 44.2%.

`O=C(/C=C/c1ccc2c(c1)OCO2)c1ccc([N+](=O)[O-])cc1`: the IC50 in assay [1] is 15.1 µM. Besides, in assay [2], the Ki is 4.4 µM. For the same compound, in assay [3], the inhibition was found to be 65.7%.

Turning to `O=C1c2cccc3c(Cl)ccc(c23)C(=O)N1Cc1ccc(S(=O)(=O)N2CCOCC2)cc1`, in assay [1], the IC50 came out at 15.5 µM. In addition, the Ki in assay [4] was determined as 36 µM. Further, in assay [3], the inhibition amounted to 82.1%.

Take `O=C(/C=C/c1cccc([N+](=O)[O-])c1)c1ccc2ccccc2c1`: the concentration for half-maximal inhibition (IC50) in assay [1] was 122 µM. Moreover, in assay [3], the inhibition is 34.7%.

`O=C1[C@@H]2C3C=CC(O3)[C@@H]2C(=O)N1c1ccc(S(=O)(=O)N2CCCC2)cc1`: in assay [1], the IC50 was 9 µM. In assay [2], the Ki was 4.4 µM. In assay [3], the inhibition turned out to be 76.4%.

With `O=C(/C=C/c1ccccc1)c1ccc2ccccc2c1`, the IC50 in assay [1] was found to be 246 µM. Further, in assay [3], the inhibition came to 30.9%.

For `COc1ccc2nc(Cl)c(/C=C/C(=O)c3ccc4ccccc4c3)cc2c1`, the IC50 in assay [1] stood at 268 µM. Also, the inhibition in assay [3] was found to be 34.6%.

With `O=C(/C=C/c1ccc(-c2cc(C(F)(F)F)ccc2Cl)o1)c1ccc2c(c1)OCO2`, the IC50 in assay [1] amounted to 38.6 µM. In addition, the Ki in assay [2] came to 11.1 µM. Besides, in assay [3], the inhibition was 33.8%.

(Values after ChEMBL document CHEMBL2390906, “Synthetic chalcones and sulfonamides as new classes of Yersinia enterocolitica YopH tyrosine phosphatase inhibitors” (Eur J Med Chem, 2013).)
